Results taken from patent publication US10167279B2 (NOVARTIS AG, priority 2014, dated 2019).

Target: C-Raf FL (Homo sapiens (Human), UniProt P04049, Y340E/Y341E)
Assay: In vitro Raf activity determination (Alpha Screen, phospho-MEK), C-Raf FL (full length, Y340E/Y341E)
Type: biochemical
Details: ATP 1 μM; 60 min pre-incubation; 1 hour reaction; column head does not say FL or TR
Source text: The activity of a compound according to the present invention can be assessed by well-known in vitro & in vivo methods. Raf inhibition data provided herein was obtained using the following procedures.
Sf9 cells co-expressing both proteins were lysed and subjected to immobilized nickel chromatography and eluted with Imidazole. A second column (StrepII binding column) was used and eluted with desthiobiotin. Protein Tags were removed using Prescission enzyme and the protein was further purified using a flowthrough step to remove tags.
C-Raf TR refers to a truncated C-Raf protein, a Δ1-324 deletion mutant. C-Raf FL refers to the full-length C-Raf protein.
Full length MEK1 with an inactivating K97R ATP binding site mutation is utilized as a RAF substrate. The MEK1 cDNA was subcloned with an N-terminal (his)6 tag into a vector for E. Coli expression. The MEK1 substrate was purified from E. Coli lysate by nickel affinity chromatography followed by anion exchange. The final MEK1 preparation was biotinylated (Pierce EZ-Link Sulfo-NHS-LC-Biotin) and concentrated.
Assay protocol: Raf and biotinylated Mek (kinase dead) were combined at 2× final concentrations in assay buffer (50 mM Tris, pH 7.5, 15 mM MgCl2, 0.01% BSA and 1 mM DTT) and dispensed […] per well in assay plates (Greiner white 384 well assay plates #781207) containing […] of 40× of a Raf kinase inhibitor test compound diluted in 100% DMSO. The plate was incubated for 60 minutes at room temperature. […] The reactions were stopped and the phosphorylated product was measured using a rabbit anti-p-MEK (Cell Signaling, #9121) antibody and the Alpha Screen IgG (ProteinA) detection Kit (PerkinElmer #6760617R), by the addition of […] to the well of a mixture of the antibody (1:2000 dilution) and detection beads (1:2000 dilution of both beads) in Stop/bead buffer (25 mM EDTA, 50 mM Tris, pH 7.5, 0.01% Tween20). The additions were carried out under dark conditions to protect the detection beads from light. A lid was placed on top of the plate and incubated for 1 hour at room temperature, after which the luminescence was read on a PerkinElmer Envision instrument. The concentration of each compound for 50% inhibition (IC50) was calculated by non-linear regression using XL Fit data analysis software.

Sequence of C-Raf FL (P04049 whole entry Y340E/Y341E): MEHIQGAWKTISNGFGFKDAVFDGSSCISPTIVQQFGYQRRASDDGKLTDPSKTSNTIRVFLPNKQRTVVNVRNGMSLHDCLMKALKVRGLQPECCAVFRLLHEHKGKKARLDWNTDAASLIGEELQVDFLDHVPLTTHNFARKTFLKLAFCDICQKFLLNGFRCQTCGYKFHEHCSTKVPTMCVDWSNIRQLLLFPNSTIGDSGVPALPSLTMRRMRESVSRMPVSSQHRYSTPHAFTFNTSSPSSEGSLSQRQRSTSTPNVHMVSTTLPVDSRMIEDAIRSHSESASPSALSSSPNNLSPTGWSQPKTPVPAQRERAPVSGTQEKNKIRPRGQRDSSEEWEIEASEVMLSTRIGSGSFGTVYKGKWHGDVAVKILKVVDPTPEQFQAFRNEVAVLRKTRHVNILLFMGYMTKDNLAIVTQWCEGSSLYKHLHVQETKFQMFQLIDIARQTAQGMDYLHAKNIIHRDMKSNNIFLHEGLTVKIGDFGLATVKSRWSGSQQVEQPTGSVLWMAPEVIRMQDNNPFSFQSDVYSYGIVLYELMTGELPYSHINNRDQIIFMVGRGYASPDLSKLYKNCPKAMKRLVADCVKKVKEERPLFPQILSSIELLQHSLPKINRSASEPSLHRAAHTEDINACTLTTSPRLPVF
Sequence of C-Raf FL (P63104 whole entry partner): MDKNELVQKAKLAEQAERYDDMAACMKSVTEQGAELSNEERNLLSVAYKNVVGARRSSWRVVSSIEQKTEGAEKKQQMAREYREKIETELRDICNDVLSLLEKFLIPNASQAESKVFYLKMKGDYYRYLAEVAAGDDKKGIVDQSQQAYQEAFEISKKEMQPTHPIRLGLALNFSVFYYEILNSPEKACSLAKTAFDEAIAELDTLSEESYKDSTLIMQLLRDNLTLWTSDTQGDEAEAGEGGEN

| SMILES | IC50 [nM] |
| --- | --- |
| COC1(c2cc(-c3cc(NC(=O)c4cccc(C(F)(F)F)c4)cnc3C)cc(NCCO)n2)COC1 [Example 152, N-(2′-((2-hydroxyethyl)amino)-6′-(3-methoxyoxetan-3-yl)-2-methyl-[3,4′-bipyridin]-5-yl)-3-(trifluoromethyl)benzamide] | 0.08 |
| COC1(c2cc(-c3cc(NC(=O)c4cccc(C(F)(F)F)c4)ccc3C)cc(NCCO)n2)COC1 [Example 153, N-(3-(2-((2-hydroxyethyl)amino)-6-(3-methoxyoxetan-3-yl)pyridin-4-yl)-4-methylphenyl)-3-(trifluoromethyl)benzamide] | 0.04 |
| COC1(c2cc(-c3cc(NC(=O)c4cc(C(F)(F)F)ccn4)ccc3C)cc(NCCO)n2)COC1 [Example 154, N-(3-(2-((2-hydroxyethyl)amino)-6-(3-methoxyoxetan-3-yl)pyridin-4-yl)-4-methylphenyl)-4-(trifluoromethyl)picolin-amide] | 0.04 |
| COC1(c2cc(-c3cc(NC(=O)c4ccnc(C(F)(F)F)c4)ccc3C)cc(OCCO)n2)COC1 [Example 157, N-(3-(2-(2-hydroxyethoxy)-6-(3-methoxyoxetan-3-yl)pyridin-4-yl)-4-methylphenyl)-2-(trifluoromethyl)isonicotin-amide] | 0.3 |
| COC1(c2cc(-c3cc(NC(=O)c4ccnc(C(F)F)c4)ccc3C)cc(OCCO)n2)COC1 [Example 158, 2-(difluoromethyl)-N-(3-(2-(2-hydroxyethoxy)-6-(3-methoxyoxetan-3-yl)pyridin-4-yl)-4-methylphenyl)isonicotin-amide] | 0.4 |
| COC1(c2cc(-c3cc(NC(=O)c4cccc(C(F)(F)F)c4)cnc3C)cc(OCCO)n2)COC1 [Example 160, N-(2′-(2-hydroxyethoxy)-6′-(3-methoxyoxetan-3-yl)-2-methyl-[3,4′-bipyridin]-5-yl)-3-(trifluoromethyl)benzamide] | 0.7 |
| CCOc1ncc(-c2cc(NC(=O)c3cnnc(C(C)(C)C#N)c3)cnc2C)cc1C1CCOCC1 [Example 161] | 2 |
| Cc1ccc(NC(=O)c2ccnc(C(F)(F)F)c2)cc1-c1cc(OCCO)nc(C2CCOCC2O)c1 (centres unmarked) [Example 162, N-(3-(2-(2-hydroxyethoxy)-6-(3-hydroxytetrahydro-2H-pyran-4-yl)pyridin-4-yl)-4-methylphenyl)-2-(trifluoromethyl)isonicotinamide] | 1 |
| CCOc1ncc(-c2cc(NC(=O)c3cnnc(C(F)(F)F)c3)cnc2C)cc1C1CCOCC1 [Example 163, N-(6′-ethoxy-2-methyl-5′-(tetrahydro-2H-pyran-4-yl)-[3,3′-bipyridin]-5-yl)-6-(trifluoromethyl) pyridazine-4-carboxamide] | 0.3 |
| CCOc1ncc(-c2cc(NC(=O)c3ccnc(C(C)(C)C#N)c3)cnc2C)cc1C1CCOCC1 [Example 164, 2-(2-cyanopropan-2-yl)-N-(6′-ethoxy-2-methyl-5′-(tetrahydro-2H-pyran-4-yl)-[3,3′-bipyridin]-5-yl)isonicotinamide] | 0.4 |
| CCOc1ncc(-c2cc(NC(=O)c3ccnc(C(C)(C)F)c3)cnc2C)cc1C1(CF)CCOC1 (centres unmarked) [Example 165, N-(6′-ethoxy-5′-(3-(fluoromethyl)tetrahydrofuran-3-yl)-2-methyl-[3,3′-bipyridin]-5-yl)-2-(2-fluoropropan-2-yl)isonicotinamide] | 1 |
| CCOc1ncc(-c2cc(NC(=O)c3ccnc(C(C)(C)C#N)c3)cnc2C)cc1C1(CF)CCOC1 (centres unmarked) [Example 166, 2-(2-cyanopropan-2-yl)-N-(6′-ethoxy-5′-(3-(fluoromethyl)tetrahydrofuran-3-yl)-2-methyl-[3,3′-bipyridin]-5-yl)isonicotinamide] | 2 |
| CCOc1ncc(-c2cc(NC(=O)c3cccc(C(F)(F)F)c3)cnc2C)cc1C1(CF)CCOC1 (centres unmarked) [Example 167, N-(6′-ethoxy-5′-(3-(fluoromethyl)tetrahydrofuran-3-yl)-2-methyl-[3,3′-bipyridin]-5-yl)-3-(trifluoromethyl) benzamide] | 1 |
| CCOc1ncc(-c2cc(NC(=O)c3ccnc(C(F)(F)F)c3)ccc2C)cc1C1(C#N)CCOC1 (centres unmarked) [Example 168, N-(3-(5-(3-cyanotetrahydrofuran-3-yl)-6-ethoxypyridin-3-yl)-4-methylphenyl)-2-(trifluoromethyl) isonicotinamide] | 0.3 |
| CCOc1ncc(-c2cc(NC(=O)c3ccnc(C(C)(C)C#N)c3)ccc2C)cc1C1(C#N)CCOC1 (centres unmarked) [Example 169, 2-(2-cyanopropan-2-yl)-N-(3-(5-(3-cyanotetrahydrofuran-3-yl)-6-ethoxypyridin-3-yl)-4-methylphenyl) isonicotinamide] | 2 |
| CCOc1ncc(-c2cc(NC(=O)c3ccnc(C(C)(C)F)c3)cnc2C)cc1C1(C#N)CCOC1 (centres unmarked) [Example 170, N-(5′-(3-cyanotetrahydrofuran-3-yl)-6′-ethoxy-2-methyl-[3,3′-bipyridin]-5-yl)-2-(2-fluoropropan-2-yl) isonicotinamide] | 2 |
| CCOc1ncc(-c2cc(NC(=O)c3cccc(C(F)(F)F)c3)cnc2C)cc1C1(C#N)CCOC1 (centres unmarked) [Example 171, N-(5′-(3-cyanotetrahydrofuran-3-yl)-6′-ethoxy-2-methyl-[3,3′-bipyridin]-5-yl)-3-(trifluoromethyl) benzamide] | 1 |
| Cc1ccc(NC(=O)c2ccnc(C(F)(F)F)c2)cc1-c1cc(NCCO)nc(C2CCOCC2)c1 [Example 172, N-(3-(2-((2-hydroxyethyl)amino)-6-(tetrahydro-2H-pyran-4-yl)pyridin-4-yl)-4-methylphenyl)-2-(trifluoromethyl) isonicotinamide] | 1.99 |
| Cc1ccc(NC(=O)c2cccc(C(F)(F)F)c2)cc1-c1cc(NCCO)nc(C2CCOCC2)c1 [Example 174] | 0.331 |
| Cc1ccc(NC(=O)c2ccnc(C(C)(C)C#N)c2)cc1-c1cc(NCCO)nc(C2CCOCC2)c1 [Example 175, 2-(2-cyanopropan-2-yl)-N-(3-(2-((2-hydroxyethyl)amino)-6-(tetrahydro-2H-pyran-4-yl)pyridin-4-yl)-4-methylphenyl) isonicotinamide] | 0.83 |
| Cc1ccc(NC(=O)c2ccnc(C(F)(F)F)c2)cc1-c1cc(C2CCOCC2)nc(N(CCO)CCO)c1 [Example 176] | 0.684 |
| Cc1ccc(NC(=O)c2ccnc(C(C)(F)F)c2)cc1-c1cc(C2CCOCC2)nc(N(CCO)CCO)c1 [Example 177, N-(3-(2-(bis(2-hydroxyethyl)amino)-6-(tetrahydro-2H-pyran-4-yl)pyridin-4-yl)-4-methylphenyl)-2-(1,1-difluoroethyl) isonicotinamide] | 0.621 |
| Cc1ccc(NC(=O)c2cccc(C(F)(F)F)c2)cc1-c1cc(C2CCOCC2)nc(N(CCO)CCO)c1 [Example 178] | 0.136 |
| Cc1ccc(NC(=O)c2ccnc(C(C)(C)C#N)c2)cc1-c1cc(C2CCOCC2)nc(N(CCO)CCO)c1 [Example 179, N-(3-(2-(bis(2-hydroxyethyl)amino)-6-(tetrahydro-2H-pyran-4-yl)pyridin-4-yl)-4-methylphenyl)-2-(2-cyanopropan-2-yl) isonicotinamide] | 0.795 |
| Cc1ncc(NC(=O)c2cccc(C(F)(F)F)c2)cc1-c1cc(NCCO)nc(C2CCOCC2)c1 [Example 180, N-(2′-((2-hydroxyethyl)amino)-2-methyl-6′-(tetrahydro-2H-pyran-4-yl)-[3,4′-bipyridin]-5-yl)-3-(trifluoromethyl) benzamide] | 0.297 |
| Cc1ncc(NC(=O)c2ccnc(C(F)(F)F)c2)cc1-c1cc(NCCO)nc(C2CCOCC2)c1 [Example 181, N-(2′-((2-hydroxyethyl)amino)-2-methyl-6′-(tetrahydro-2H-pyran-4-yl)-[3,4′-bipyridin]-5-yl)-2-(trifluoromethyl) isonicotinamide] | 0.393 |
| CCC(F)(F)c1cc(C(=O)Nc2cnc(C)c(-c3cc(NCCO)nc(C4CCOCC4)c3)c2)ccn1 [Example 182, 2-(1,1-difluoropropyl)-N-(2′-((2-hydroxyethyl)amino)-2-methyl-6′-(tetrahydro-2H-pyran-4-yl)-[3,4′-bipyridin]-5-yl) isonicotinamide] | 0.951 |
| Cc1ncc(NC(=O)c2cccc(C(F)(F)F)c2)cc1-c1cc(C2CCOCC2)nc(N2CCC(O)CC2)c1 [Example 183, N-(2′-(4-hydroxypiperidin-1-yl)-2-methyl-6′-(tetrahydro-2H-pyran-4-yl)-[3,4′-bipyridin]-5-yl)-3-(trifluoromethyl) benzamide] | 1.99 |
| CCC(F)(F)c1cc(C(=O)Nc2cnc(C)c(-c3cc(C4CCOCC4)nc(N4CCC(O)CC4)c3)c2)ccn1 [Example 185, 2-(1,1-difluoropropyl)-N-(2′-(4-hydroxypiperidin-1-yl)-2-methyl-6′-(tetrahydro-2H-pyran-4-yl)-[3,4′-bipyridin]-5-yl) isonicotinamide] | 0.331 |
